# How the values were obtained:
# [1] = test system: expression of pOGH (ANG N-1498/+18) in Hep G-TW7 cells; assay: Stimulation of expression of pOGH (ANG N-1498/+18) in stable Hep G-TW7 cells by angiotensins, IR-hGH by RIA; assay type: cell-based, human; conditions: 24 hours; for concentration giving maximal stimulation of expression of pOGH (ANG N-1498/+18): 10^-11 to 10^-5 mol/L tested
# Protocol: The method for the selection of stable hepatoma transformants with high expression of pOGH (ANG N-1498/+18) was similar to that described previously for opossum kidney cells (Wang TT et al., Kidney Int., 1994, 46:703-710). Briefly, plasmids pOGH (ANG N-1498/+18) and pRSV-Neo fusion genes were co-transfected (20 μg each) into Hep G-2 cells (1×10^6 cells) utilizing calcium phosphate-mediated endocytosis (Ming M. et al., Am. J. Hypertens., 1993, 6:141-148). After transfection, the cells were cultured overnight in 5.0 ml of DMEM containing 10% FBS. Then the medium was replaced with fresh medium containing 10% FBS and 500 μg/ml of aminoglycoside G 418 (Geneticin, Gibco Inc.). The stable transformants which were able to grow in the presence of G 418 and which secreted high levels of IR-hGH into the medium were further subcloned using the method of limiting dilution. Those cells that had passed through at least three repetitions of limiting dilution and continued to secrete high levels of IR-hGH after three months in the presence of G 418 were considered to be stable clones. One clone of human hepatoma (Hep G-TW7) with pOGH (ANG N-1498/+18) integrated into the genomes of Hep G-2 cells was obtained. The clone (Hep G-TW7) was used in accordance with the present invention.
# Hep G-TW7 cells were plated at a density of 1-2×10^5 cells/well in 6-well plates and incubated overnight in DMEM containing 1% depleted FBS (dFBS). Then cell growth was arrested by incubation in serum-free medium for 24 hours. Subsequently, various concentrations of AII (10^-11 to 10^-5 mol/L) were added to the culture medium containing 1% dFBS. At the end of the incubation period, media were collected and kept at -20° C. until assay for IR-hGH.
# Cells were incubated for up to 24 hours in the presence of various concentrations of AII. Media were harvested after 24 hours of incubation and assayed for IR-hGH. Each point represents the mean ±S.D. of at least three dishes (*p<0.05, **p<0.01 and **p<0.005).Similar results were obtained from two other experiments. It appears that maximal stimulation of expression of the pOGH (ANG N-1498/+18) was found with 10^-9 mol/L AII (p<0.01). At other concentrations of AII, it appears that the stimulatory effect of AII is minimal or inhibited.
# (§1) The radioimmunoassay kit for hGH (RIA-hGH) was a gift from NIADDK, NIH, USA. The double antibody RIA procedure was similar to that previously used for the radioimmunoassay of ovine placental lactogen (Chan JSD et al., Endocrinology, 1978, 102:1606-1613). NIAMDD-hGH-1 (AFP-4793 B) was used for both iodination and as a hormone standard.
# Hep G-TW7 cells were plated at a density of 1-2×10^5 cells/well in 6-well plates and incubated overnight in DMEM containing 1% depleted fetal bovine serum (dFBS). […]
# [2] = test system: expression of pOGH (ANG N-1498/+18) fusion gene in Hep G-2 cells; assay: Transient gene transfection assay of pOGH (ANG N-1498/+18) in Hep G-2 cells, IR-hGH by RIA; assay type: cell-based, human; conditions: AII 10^-9 mol/L; for inhibition of the stimulatory effect of AII on expression of pOGH (ANG N-1498/+18): antagonist 10^-5 mol/L
# Protocol: Plasmids or fusion genes were transfected into Hep G-2 cells utilizing calcium phosphate endocytosis as described previously (Ming M. et al., Am. J. Hypertens., 1993, 6:141-148). It was previously shown that optimal dose of DNA for gene transfection in mouse hepatoma (Hepa 1-6) cells is 20 μg of supercoiled DNA per 0.5-1×10^6 cells (Ming M. et al., Am. J. Hypertens., 1993, 6:141-148). Similar results were obtained in Hep G-2 cells. Thus, in present studies, a total of 20 μg DNA was routinely used in the cell transfection.
# To study the effect of AII in the presence or absence of various AII antagonists on the expression of fusion gene in transient gene transfection assays, cells were incubated in DMEM without FBS, 10^-9 mol/L AII with or without 10^-5 mol/L AII antagonist were added on day 1 after DNA transfection. The media or cells were harvested on day 2 for assay of IR-hGH or CAT enzymatic activity, respectively.
# In order to normalize the efficiency of transfection of pOGH (ANG N-1498/+18), 1 μg of pRSVCAT (a vector with the Rous Sarcoma Virus enhancer/promoter sequence fused to the 5'-end of the CAT coding sequence) was cotransfected with the pOGH (ANG N-1498/+18) (20 μg DNA). The results of pOGH (ANG N-1498/+18) were normalized to the efficiency of transfection of pRSVCAT. The levels of transfection efficiency for pOGH (ANG N-1498/+18) in human hepatoma cells was 25+12% as compared to pRSVCAT.
# Results are expressed as the percentage of the control (without addition of AII antagonist, 100%), mean ±S.D. AII (10^-9 mol/L) stimulated the expression of the ANG-GH fusion gene by 1.4-fold (p<0.01) as compared to the control (absence of AII) in Hep G-2 cells. In the presence of Lorsatan™ (10^-5 mol/L) or Saralasin™ (10^-5 mol/L), the stimulatory effect of AII was inhibited.
# as §1
# [3] = test system: expression of pOGH (ANG N-1498/+18) in Hep G-TW7 cells stimulated by AII; assay: Inhibition of AII-stimulated expression of pOGH (ANG N-1498/+18) in Hep G-TW7 cells, IR-hGH by RIA; assay type: cell-based, human; conditions: AII 10^-9 mol/L, 24 hours; for effect on the stimulatory effect of AII on expression of pOGH (ANG N-1498/+18): various concentrations of test substance
# Protocol: Hep G-TW7 cells were plated at a density of 1-2×10^5 cells/well in a. 6-well plate and incubated overnight in DMEM containing 1% depleted FBS (dFBS). Then cell growth was arrested by incubation in serum-free medium for 24 hours. Subsequently, various concentrations (10^-9 to 10^-5 mol/L) of Lorsatan™, Saralasin™ and CGP 42112A™ were added to the culture medium containing 1% dFBS in the presence of 10^-9 mol/L AII and incubated for 24 hours. At the end of the incubation period, media were collected and kept at -20° C. until assay.
# Cells were incubated for up to 24 hours in the presence of AII (10-9mol/L) and various concentrations of Lorsatan™ (10^-9 to 10^-5 mol/L) or Saralasin™ (10^-9 to 10^-5 mol/L) or CGP 42112A™ (10^-9 to 10^-5 mol/L). Media harvested and assayed for the level of IR-hGH.
# Hep G-TW7 cells were plated at a density of 1-2×10^5 cells/well in a 6-well plate and incubated overnight in DMEM containing 1% dFBS. Then cells growth was arrested by incubation in serum-free medium for 24 hours. […] At the end of the incubation period, media were collected and kept at -20° C. until assay.
# Media were harvested and assayed for the level of IR-hGH.
# The radioimmunoassay kit for hGH (RIA-hGH) was a gift from NIADDK, NIH, USA. […] NIAMDD-hGH-1 (AFP-4793 B) was used for both iodination and as a hormone standard.
# [4] = test system: expression of pOCAT (ANG N-1498/+18) in Hepa 1-6 cells; conditions: cited from earlier work
# [5] = test system: expression of pOCAT (ANG N-1498/+18) in hepatoma cells; assay: Transient gene transfection of pOCAT (ANG N-1498/+18) in the presence of hGH, CAT assay; assay type: cell-based, human; conditions: hGH as high as 4.5 mmol/L
# Description: The method for the CAT assay has been described previously (Ming M. et al., Am. J. Hypertens., 1993, 6:141-148). The results of all CAT assays are given as a mean+S.D. in triplicates.
# In accordance with the present invention, the plasmid pOGH (ANG N-1498/+18) was employed to study the effect of AII (FIGS. 2 to 6). Since receptors for hGH are presented in Hep G-2 cells, this raised the possibility that the hGH secreted into the medium may have a stimulatory effect on the expression of the ANG gene. Thus, in order to investigate this possibility, transient gene transfection experiments were performed by employing pOCAT (ANG N-1498/+18) (Ming M. et al., Am. J. Hypertens., 1993, 6:141-148), in the presence of hGH. […] The use of plasmid pOGH (ANG N-1498/+18) in accordance with the present invention is appropriate.
compound,measurement,setting,value
"CC[C@H](C)[C@H](NC(=O)[C@H](Cc1ccc(O)cc1)NC(=O)[C@@H](NC(=O)[C@@H](N)CCCNC(=N)N)C(C)C)C(=O)N[C@@H](Cc1c[nH]cn1)C(=O)N1CCC[C@H]1C(=O)N[C@@H](Cc1ccccc1)C(=O)O [AIII, angiotensin III]",effective dose for stimulating the expression of pOGH (ANG N-1498/+18),[1],> 10^-5 mol/L
"angiotensin I (DRVYIHPFHL; Angiotensin-1; UniProt P01019 25-34, looked up) [AI]",concentration giving maximal stimulation of expression of pOGH (ANG N-1498/+18),[1],10^-7 mol/L
CGP 42112A,inhibition of the stimulatory effect of AII on expression of pOGH (ANG N-1498/+18),[2],no inhibitory effect
same,effective dose for the inhibition of the AII-stimulated expression of pOGH (ANG N-1498/+18),[3],> 10^-5 mol/L
CN[C@@H]1C[C@H]2O[C@@](C)([C@@H]1OC)n1c3ccccc3c3c4c(c5c6ccccc6n2c5c31)C(=O)NC4 [Staurosporine],effect on the stimulatory effect of AII on expression of pOGH (ANG N-1498/+18),[3],inhibits the stimulatory effect of AII
CCCCc1nc(Cl)c(CO)n1Cc1ccc(-c2ccccc2-c2nn[nH]n2)cc1 [Lorsatan],inhibition of the stimulatory effect of AII on expression of pOGH (ANG N-1498/+18),[2],inhibited
same,effect on the stimulatory effect of AII on expression of pOGH (ANG N-1498/+18),[3],inhibits the stimulatory effect of AII
same,minimal effective concentration,"[3]; Homo sapiens, read-out: effective dose for the inhibition of the AII-stimulated expression of pOGH (ANG N-1498/+18)",0.001 µM
CNCC(=O)N[C@@H](CCCN=C(N)N)C(=O)N[C@H](C(=O)N[C@@H](Cc1ccc(O)cc1)C(=O)N[C@H](C(=O)N[C@@H](Cc1cnc[nH]1)C(=O)N1CCC[C@H]1C(=O)N[C@@H](C)C(=O)O)C(C)C)C(C)C [Saralasin],inhibition of the stimulatory effect of AII on expression of pOGH (ANG N-1498/+18),[2],inhibited
same,effective dose for the inhibition of the AII-stimulated expression of pOGH (ANG N-1498/+18),[3],10^-7 mol/L
same,effect on the stimulatory effect of AII on expression of pOGH (ANG N-1498/+18),[3],inhibits the stimulatory effect of AII
C[C@@H]1C[C@H]2[C@@H]3CCC4=CC(=O)C=C[C@]4(C)[C@@]3(F)[C@@H](O)C[C@]2(C)[C@@]1(O)C(=O)CO [dexamethasone],"effect on expression of ANG-CAT fusion genes, substance alone",[4],stimulates the expression
hGH: human growth hormone,effect of hGH on expression of pOCAT (ANG N-1498/+18),[5],No significant increase
"angiotensin II (DRVYIHPF; Angiotensin-2; UniProt P01019 25-32, looked up) [AII, peptide derived from angiotensinogen; stimulus of ANG gene expression]",effective dose for stimulating the expression of pOGH (ANG N-1498/+18),[1],10^-9 mol/L
same,concentration giving maximal stimulation of expression of pOGH (ANG N-1498/+18),[1],10^-9 mol/L
same,stimulation of the expression of the ANG-GH fusion gene as compared to the control (absence of AII),"[2]; p<0.01, 0.001 µM",1.4 fold
"Nc1ncnc2c1nc(Br)n2[C@@H]1O[C@@H]2COP(=O)(O)O[C@H]2[C@H]1O [8-Br-cAMP, 8-Bromo-cAMP]",effect on the stimulatory effect of dexamethasone on expression of ANG-CAT fusion genes,[4]; added with DEX,enhanced the stimulatory effect
same,"effect on expression of ANG-CAT fusion genes, substance alone",[4],no stimulatory effect
